Assay [1] deals with T1, rat primary pituitary cells (Rattus norvegicus, UniProt Q02644).
T1 sequence (Q02644 23-464): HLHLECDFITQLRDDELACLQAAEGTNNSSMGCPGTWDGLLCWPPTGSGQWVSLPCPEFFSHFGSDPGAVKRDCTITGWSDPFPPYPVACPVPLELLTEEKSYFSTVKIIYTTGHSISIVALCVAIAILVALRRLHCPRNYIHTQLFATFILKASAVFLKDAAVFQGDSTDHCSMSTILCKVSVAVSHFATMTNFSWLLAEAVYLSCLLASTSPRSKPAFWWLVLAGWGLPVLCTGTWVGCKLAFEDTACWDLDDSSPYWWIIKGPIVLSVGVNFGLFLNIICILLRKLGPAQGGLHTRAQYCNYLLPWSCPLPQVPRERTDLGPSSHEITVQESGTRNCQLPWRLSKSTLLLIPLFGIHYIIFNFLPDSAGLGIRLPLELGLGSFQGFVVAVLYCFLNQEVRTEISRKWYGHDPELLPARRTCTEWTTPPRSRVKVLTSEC
As to the kind of experiment: Growth hormone release in vitro from rat primary pituitary cells. Type of assay: cell-based. The settings on record: growth hormone released into media after exposure to 7 doses of secretagogue for 3h. How it is done: The polypeptide compounds of the invention may be assayed in numerous systems. One in vivo assay is carried out in sodium pentobarbital-anesthetized rats. Wehrenberg et al., Biochem. Biophys. Res. Commun. 109:382 (1982). Growth hormone release is measured in vitro with rat anterior pituitary cells. Heiman et al., Endocrinol. 116:410 (1985).

Another assay concerns barrows. Kind of assay: In vivo effects in barrows injected subcutaneously or intravenously 3 times daily (urinary urea nitrogen excretion and serum parameters). The settings on record: for GH: serum Growth Hormone level; for GH / TRIG. / BUN / FFA / GLUCOSE / INSULIN: 12th day of treatment; for GH / TRIG. / BUN / FFA / GLUCOSE / INSULIN / UREA: means; for TRIG.: serum triglycerides; for BUN / FFA / GLUCOSE / INSULIN: serum; for UREA: urinary urea nitrogen excretion, injected 3 times daily. How it is done:
A carrier solution was prepared by dissolving 1.38 g of Na2HP04 and 1.0g PSA with pyrogen free H2O to a final volume of 1 litre, pH approximately 5.1. 27.4 mg The p-methyl hippuroyl pGRF (2-76)OH prepared in substantial accordance with the teaching of Example 4.B. above was added to 64 ml of the carrier solution to achieve a final concentration of […].
Twenty crossbred barrows, averaging approximately 72 kg, with an indwelling catheter which had been surgically inserted into the femoral vein, were used to determine the effects of p-methyl hippuroyl pGRF (2-76)OH. A formulation of the p-methyl hippuroyl pGRF (2-76)OH was prepared in substantial accordance with the teaching of Example 11 above and injected 3 times daily at a rate of 10.0 µg/kg/inj., either intravenously (I.V.) or subcutaneously (S.Q.). The barrows were fed 2000 g of an 18.5% crude protein corn-soy diet per day, equally divided between 2 feedings at 8:00 a.m. and 4:00 p.m. The barrows were injected at 8:00 a.m., 4:00 p.m., and 12:00 p.m. Urinary urea nitrogen excretion data were collected during 1 5day control period, 4 3-day treatment periods, and 2 3-day periods after treatments were stopped. Thirty blood serum samples were collected during a 24-hour period on the 12th day of treatment. The serum samples were assayed for GH, BUN, glucose, insulin, FFA, and triglycerides.

[2] abbreviates: Table 1, bGRF analogs, EC50 is the calculated median effective dose.
[3] abbreviates: injected 3 times daily at a rate of 30.0 µg/kg/d, versus control barrows.

Marks after values point to notes of the source that are not given here.

By EC50 is commonly meant the midpoint of the concentration-response curve. As for Hippuroyl-1 bGRF(2-77)0H, the EC50 in assay [1] (setting [2]) is 0.86 nM.

Hippuroyl-1 pGRF(2-76)OH: in assay [1] (Table 2, pGRF(2-76)OH analogs), the EC50 amounted to 0.28 nM.

For bGRF (1-77)0H [reference compound], in assay [1] (setting [2]), the EC50 was 0.59 nM.

“des Tyr-1 pGRF(2-76)0H [reference compound]”: the EC50 in assay [1] (Table 2, pGRF(2-76)OH analogs) came to 95 nM.

For n-Phenylmalonamindoyl bGRF(2-77)0H, the EC50 in assay [1] (setting [2]) is 0.19 nM.

For p-Chloro Hippuroyl bGRF(2-77)OH, the 50% effective concentration (EC50) in assay [1] (setting [2]) was 0.19 nM.

On to p-Fluoro Hippuroyl bGRF(2-77)0H, for which, in assay [1] (setting [2]), the EC50 was 0.14 nM.

p-Hydroxy Hippuroyl bGRF(2-77)0H: the EC50 in assay [1] (setting [2]) is 0.33 nM.

For p-Methyl Hippuroyl bGRF(2-77)OH, the EC50 in assay [1] (setting [2]) is 0.05 nM.

p-Methyl Hippuroyl pGRF(2-76)OH: the EC50 in assay [1] (Table 2, pGRF(2-76)OH analogs) was determined as 0.06 nM. For the same substance, the EC50 in assay [1] (Table 3, p-Methyl Hippuroyl-1 pGRF analogs of different length) amounted to 0.06 nM. In the assay on barrows (setting [3]), the “increase in serum GH levels” value came out at 4 fold, the “reduction in serum BUN levels” value came out at 54% and the “reduction in urinary urea nitrogen excretion” value is 41%. Moreover, in the assay with barrows (IV 30 µg/kg/d), the GH is reported as 9.9^b ng/ml, the TRIG. is 35.3^b mg/dla, the BUN is on record as 7.0^b mg/dl and the FFA is 97.3^b µM/la. In the assay on barrows (IV 30 µg/kg/d), the GLUCOSE is 132.7^b mg/dl, the INSULIN is on record as 76.8^b µu/ml and the UREA is on record as 16.3^b g/day. In addition, in the assay with barrows (SQ 30 µg/kg/d), the GH is listed as 8.9^b ng/ml, the TRIG. was 32.5^ab mg/dla, the BUN is listed as 7.5^b mg/dl and the FFA is on record as 97.5^b µM/la. Also, in the assay with barrows (SQ 30 µg/kg/d), the GLUCOSE is 147.3^b mg/dl, the INSULIN is reported as 112.9^C µu/ml and the UREA is on record as 16.4^b g/day. Moreover, in the assay with barrows (subcutaneously injected barrows), the “depression in urinary urea nitrogen excretion prolonged after treatments were stopped” value fell in the range of 2 to 3 days.

With “p-Methyl Phenylmalonamindoyl pGRF(2-76)OH”, the EC50 in assay [1] (Table 2, pGRF(2-76)OH analogs) was 0.06 nM.

With p-Nitro Hippuroyl bGRF (2-77)0H, in assay [1] (setting [2]), the EC50 is 0.51 nM.

The values above are taken from patent EP0511003B1, “Superactive GRF analogs” (ELI LILLY AND COMPANY, priority 1991, dated 1992).
